# Reference: US20160158317A1, “Antimicrobial Peptide Variants and Polynucleotides Encoding Same” (Adenium Biotech A/S, priority 2010, published 2016)
# Where “and” joins values, the source holds several entries; their conditions need not be identical. Identical values can stand only once.
# Test system: E. coli AID#172
# Assay: Neutropenic thigh infection model, dose-response and estimation of ED50 (Example 4)
# Assay type: in vivo, Escherichia coli
# Protocol: The purpose of this study was to investigate the dose-response relationship following intravenous (i.v.) administration of a single dose of NZ17074 ranging from 0.16-12 mg/kg. The effect was tested against E. coli AID#172 in the neutropenic thigh model. Treatment with 40 mg/kg meropenem was included as a positive control group. The colony counts in thighs were determined at 5 hours after treatment.
# The thigh infection model is a well-recognized model for studies of antimicrobial effect and tissue penetration as described by S. Gudmundsson & H. Erlensdóttir: Handbook of Animal Models of Infection (1999), ed. by O. Zak & M. A. Sande, Academic Press, San Diego, US and in several publications. Reviewed by D. Andes & C. Craig: Animal model pharmacokinetics and pharmacodynamics: a critical review. International Journal of Antimicrobial Agents 19(4): 261-268.
# • 40 outbred, NMRI female mice, 25-30 grams (Harlan Scandinavia) • E. coli AID#172 from Statens Serum Institute, Copenhagen, Denmark: Clinical isolate from a human wound from 2003. Multiresistant (Ampicillin, Ceftazidime, Aztreonam, Gentamicin, Ciprofloxacin) • NZ17074 in Ringer Acetate, pH 6: 1.2 mg/ml, 6.0 ml. The solution was stored at 4° C. until use. Analyses of the dose formulations used were performed after completion of the in-life phase of the study and gave the following results: […]
# The mice were observed during the study and scored 0-5 based on their behaviour and clinical signs. • Score 0: Healthy. • Score 1: Minor clinical signs of infection and inflammation e.g. observations of minor signs of distress or changed activity. • Score 2: Clear signs of infection like, social withdrawal, lack of curiosity, changed body position, piloerection, or changes in pattern of movement. • Score 3: Severe signs of infection like stiff movements, lack of curiosity, changed body position, piloerection, pain, or changes in pattern of movement. • Score 4: Severe pain and the mouse was sacrificed immediately to minimize the suffering of the animal. • Score 5: The mouse was dead.
# Colony counts were determined from thighs at 0 and 5 hours. […]
structure (smiles),measurement,setting,value
C[C@@H](O)[C@H]1C(=O)N2C(C(=O)O)=C(S[C@@H]3CN[C@H](C(=O)N(C)C)C3)[C@H](C)[C@H]12 [meropenem],CFU levels in thigh compared to vehicle,"40 mg/kg i.v., 5 hours",slight but not significant reduction
same,log10 CFU thigh mean,"Meropenem 40 mg/kg single dose, thigh, T = 5, group mean without outlier, not significant vs vehicle",4.25 log10 CFU/ml
same,log10 CFU thigh,"Meropenem 40 mg/kg single dose, thigh, T = 5, individual mice, ¤ value excluded from mean as outlier",3.08¤ log10 CFU/ml and 3.81¤ log10 CFU/ml and 4.99 log10 CFU/ml and 3.94 log10 CFU/ml
